Patent US6545020B1, “Farnesyl Protein transferase inhibitors with in vivo radiosensitizing properties” (Janssen Pharmaceutica, N.V., priority 1998, dated 2003)

Key:
[1] = system: LoVo human colon tumor cells; experiment: LoVo human colon tumor xenograft in athymic nude mice, oral treatment with or without single 7 Gy irradiation on day 32; assay type: in vivo
Source text: Male athymic nude mice weighing approximately 22 to 25 g were inoculated subcutaneously in the inguinal region with 1×10^6 of LoVo human colon tumor cells (LoVo cells) on day 0. After three weeks to allow tumors to become established (diameter approximately 0.5 to 1 cm), treatment was started with solvent or compound 75 via the oral route, and either with or without a single shot irradiation on day 32. Parameters for activity were tumor growth rate and weight of the tumors at day 42.
Compound 75 was dissolved in water and acidified with 1 N HCl solution to pH 2.5 and administered orally (po) as 0.1 ml of compound solution per 10 g mouse body weight twice daily (bid). The dose administered was either 50 or 100 mg compound per kg bodyweight; treatment either preceded irradiation (days 22-32), followed irradiation (days 32-42) or continued throughout the duration of the experiment (days 22-42).
In each arm of the experiment 16 animals were included. The column ‘tumor (g)’ contains the median of the tumor weight of the animals sacrificed at day 42 of the experiment. FIGS. 1 and 2 represent the observed data in graphical form.

[2] = system: SF763; experiment: Radiosensitization of radioresistant human glioma cell line SF763 (surviving fraction after 2 Gy); assay type: cell-based; settings: 2 nM, 48 h prior to irradiation (2 Gy)
Description: (§1) Radioresistant human glioma cell lines (SF763, U87, U251) were treated with compound 75, 48 h prior to irradiation (2 Gy). The dose administered was 0.4 nM for U251 and 2 nM for SF763 and U87.

[3] = system: U87; experiment: Radiosensitization of radioresistant human glioma cell line U87 (surviving fraction after 2 Gy); assay type: cell-based; settings: 2 nM, 48 h prior to irradiation (2 Gy)
Description: as §1

[4] = system: U251; experiment: Radiosensitization of radioresistant human glioma cell line U251 (surviving fraction after 2 Gy); assay type: cell-based; settings: 0.4 nM, 48 h prior to irradiation (2 Gy)
Description: as §1

For `Cn1cncc1[C@@](N)(c1ccc(Cl)cc1)c1ccc2c(c1)c(-c1cccc(Cl)c1)cc(=O)n2C` [Compound 75, (+)-(R)-6-[amino(4-chlorophenyl)(1-methyl-1H-imidazol-5-yl)methyl]-4-(3-chloro-phenyl)-1-methyl-2(1H)-quinolinone], the “tumor (g), median tumor weight at day 42” value ([1]; Group II, 50 mpk po bid, day 22-42, irradiation none) was 0.255 g, the “tumor (g), median tumor weight at day 42” value ([1]; Group III, 50 mpk po bid, day 22-32, irradiation none) was 0.273 g and the “tumor (g), median tumor weight at day 42” value ([1]; Group IV, 50 mpk po bid, day 32-42, irradiation none) was 0.295 g. The “tumor (g), median tumor weight at day 42” value ([1]; Group IX, 50 mpk po bid, day 22-32, irradiation 7 Gy on day 32) was 0.156 g, the “tumor (g), median tumor weight at day 42” value ([1]; Group V, 100 mpk po bid, day 22-42, irradiation none) was 0.205 g and the “tumor (g), median tumor weight at day 42” value ([1]; Group VI, 100 mpk po bid, day 22-32, irradiation none) was 0.234 g. For the same compound, the “tumor (g), median tumor weight at day 42” value ([1]; Group VII, 100 mpk po bid, day 32-42, irradiation none) was 0.277 g, the “tumor (g), median tumor weight at day 42” value ([1]; Group VIII, 50 mpk po bid, day 22-42, irradiation 7 Gy on day 32) was 0.207 g and the “tumor (g), median tumor weight at day 42” value ([1]; Group X, 50 mpk po bid, day 32-42, irradiation 7 Gy on day 32) was 0.259 g. For the same compound, the “tumor (g), median tumor weight at day 42” value ([1]; Group XI, 100 mpk po bid, day 22-42, irradiation 7 Gy on day 32) was 0.164 g, the “tumor (g), median tumor weight at day 42” value ([1]; Group XII, 100 mpk po bid, day 22-32, irradiation 7 Gy on day 32) was 0.141 g and the “tumor (g), median tumor weight at day 42” value ([1]; Group XIII, 100 mpk po bid, day 32-42, irradiation 7 Gy on day 32) was 0.214 g. For the same compound, the “effect of treatment on the effect of irradiation (statistical analysis)” value ([1]; both 50 and 100 mpk) was “potentiates the effect of irradiation”, the “effect of pretreatment and irradiation on tumor weight compared to irradiation alone” value ([1]; pretreatment, both 50 and 100 mpk, plus irradiation) was “reduces tumor weight in a statistically significant manner” and the “decrease of surviving fraction after irradiation” value (“decrease of surviving fraction” below) [2] was “about 55%”. For the same compound, the “decrease of surviving fraction” value [3] was “about 55%” and the “decrease of surviving fraction” value [4] was 25%.
